ChEMBL document CHEMBL4732253, “Free energy perturbation in the design of EED ligands as inhibitors of polycomb repressive complex 2 (PRC2) methyltransferase” (Bioorg Med Chem Lett, 2021)
In brackets after ≈: the same amount, converted by molar mass.

Experiments:
[1] = Solubility of compound in PBS at pH 7.4 measured for 24 hrs; assay type: physicochemical
[2] = Intrinsic clearance in human liver microsomes; assay type: ADME, Microsome; conditions: read-out: CLH
[3] = Lipophilicity, log D of the compound in Octanol/phosphate buffer at pH 7.4 by shake-flask method; assay type: physicochemical
[4] = target: Polycomb protein EED (Homo sapiens, UniProt O75530); experiment: Binding affinity to EED (unknown origin) assessed as dissociation constant by SPR analysis
Sequence of Polycomb protein EED (O75530 whole entry): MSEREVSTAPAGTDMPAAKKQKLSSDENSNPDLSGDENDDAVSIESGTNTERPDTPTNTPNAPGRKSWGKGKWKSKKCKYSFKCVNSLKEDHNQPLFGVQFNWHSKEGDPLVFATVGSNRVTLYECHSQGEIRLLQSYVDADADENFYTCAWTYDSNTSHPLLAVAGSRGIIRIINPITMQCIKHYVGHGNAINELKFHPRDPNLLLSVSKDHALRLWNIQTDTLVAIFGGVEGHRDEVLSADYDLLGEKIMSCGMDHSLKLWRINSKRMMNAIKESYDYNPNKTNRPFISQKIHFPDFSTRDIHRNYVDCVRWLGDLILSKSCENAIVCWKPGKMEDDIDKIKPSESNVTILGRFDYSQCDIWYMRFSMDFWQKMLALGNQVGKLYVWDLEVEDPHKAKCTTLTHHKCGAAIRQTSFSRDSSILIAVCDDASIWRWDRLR

[5] = Intrinsic clearance in rat hepatocytes assessed per million cells; assay type: ADME, cell-based, Hepatocyte; conditions: read-out: CLH
[6] = Inhibition of PRC2 in human G-401 cells assessed as reduction in methylation of H3K27 trimethylation by HTRF assay; assay type: cell-based

Row | SMILES | solubility at 24 h [1] [µM] | microsomal CLint [2] [µL/min/mg] | logD [3] | Kd [4] [nM] | hepatocyte CLint [5] [µL/min/1e6 cells] | IC50 [6] [nM]
1 | Cc1ncccc1-c1cnc(NCc2c(F)cc(C#N)c3c2CCO3)n2cnnc12 | 3 (≈ 1.2 µg/mL) | 28 | 2.2 | 15000 | 10 | 102
2 | COc1cc(F)c(CNc2ncc(-c3cccnc3C)c3nncn23)c2c1OCC2 | 21 (≈ 8.53 µg/mL) | 20 | 2.3 | 305000 | 4 | 15500
3 | Cc1ncccc1-c1cnc(NCc2c(F)cc(F)c3c2CCO3)n2cnnc12 | 4 (≈ 1.58 µg/mL) | 9 | 2.6 | 1200 | 9 | 11
4 | Cc1ncccc1-c1cnc(NCc2c(F)ccc3c2CCO3)n2cnnc12 |  | 15 | 2.5 | 400 | 6 | 5
5 | Cc1ncccc1-c1cnc(NCc2c(F)cc(N)c3c2CCO3)n2cnnc12 |  | 13 | 1.8 | 500 | 7 | 50
6 | Cc1ncccc1-c1cnc(NCc2c(F)cc(Cl)c3c2CCO3)n2cnnc12 | 0.2 (≈ 0.0822 µg/mL) | 20 | 3.2 | 2400 | 9 | 16
7 | Cc1ncccc1-c1cnc(NCc2c(F)cc(O)c3c2CCO3)n2cnnc12 | 5 (≈ 1.96 µg/mL) | 9 | 1.8 |  | 50 | 15
